For four molecules, binding results are on record in PMC7261162 (2020).

The subject of assay [1] is CatG4-T7 / ssDNA duplex-GQ chimera (DNA, G4) TGGGTAGGGCGGGTTGGGAAATATCCTATAGTGAGTCGTATTAAAG/CTTTAATACGACTCACTATAGG
The experiment in a line: hemin-dependent self-biotinylation, StAv gel shift (indirect). Conditions: 20 mM KCl, 26 mM MgCl2, 2.5 mM spermidine; QD buffer pH 8.0; 1 uM DNA, 5 uM hemin; CatG4-T7 strand 52%, ssDNA strand 3% biotinylated.

The subject of assay [2] is hTELO (DNA, G4) GGTTAGGGTTAGGGTTAGGGTTAGGGTTAG
The assay is described as above. The following applies: 20 mM KCl; 40 mM HEPES pH 8.0, 22°C; 5 uM hemin.

The subject of assay [3] is rBCL2 (RNA, G4) AGGGGGCCGUGGGGUGGGAGCUGGGG
The description is as above. Conditions: 20 mM KCl; 40 mM HEPES pH 8.0, 22°C; 5 uM hemin.

Assay [4] relates to KIT1 (DNA, G4) AGGGAGGGCGCTGGGAGGAGGG
The description is as above. Conditions: 20 mM KCl; 40 mM HEPES pH 8.0, 22°C; 5 uM hemin.

In assay [5] the test system is MYC (DNA, G4) TGAGGGTGGGTAGGGTGGGTAA
The description is as above. Conditions: 20 mM KCl; 40 mM HEPES pH 8.0, 22°C; 5 uM hemin.

Assay [6] concerns SPB1 (DNA, G4) GGCGAGGAGGGGCGTGGCCGGC
The assay is described as above. Conditions: 20 mM KCl; 40 mM HEPES pH 8.0, 22°C; 5 uM hemin.

Assay [7] relates to rNRAS (RNA, G4) AGGGAGGGGCGGGUCUGGG
Described as above. The following applies: 20 mM KCl; 40 mM HEPES pH 8.0, 22°C; 5 uM hemin.

The test system of assay [8] is CatG4 (DNA, G4) TGGGTAGGGCGGGTTGGGAAA
Described as above. Conditions: 20 mM KCl; 40 mM HEPES pH 8.0, 22°C; 5 uM hemin.

Assay [9] deals with KIT2 (DNA, G4) CGGGCGGGCGCGAGGGAGGGG
The description is as above. Conditions: 20 mM KCl; 40 mM HEPES pH 8.0, 22°C; 5 uM hemin.

Assay [10] relates to CatG4-ext (DNA, G4) ACATAGCTGACTGGCTTGATTTTGGGTAGGGCGGGTTGGGAAATATCGAATTCTCAGCCTACACTGCAGTACTAGTACATATCA
The description is as above. Conditions: 20 mM KCl, 26 mM MgCl2, 2.5 mM spermidine; QD buffer pH 8.0, 22°C; 10 nM DNA, 5 uM hemin, 100 uM ssDNA or dsDNA competitor.

In assay [11] the test system is CatG4-ext2 / Comp-1 / ssDNA / Comp-3 GQ-duplex chimera (DNA, G4) TGGGTAGGGCGGGTTGGGAAATATTTTAGCTCACGAGACGCTCCCATAGTGACCTATAGTGAGTCGTATTAAAGTCCGGAGGACTGTCCTCCGGC/TCACTATGGGAGCGTCTCGTGAGCTAAA/CTTTAATACGACTCACTATAGG/GCCGGAGGACAGTCCTCCGGA
Described as above. Conditions: 20 mM KCl, 26 mM MgCl2, 2.5 mM spermidine; QD buffer pH 8.0; 1 uM DNA, 5 uM hemin; ssDNA strand not biotinylated.

Assay [12] has as its system TBA (DNA, G4) GGTTGGTGTGGTTGG
The assay is described as above. Conditions: 20 mM KCl; 40 mM HEPES pH 8.0, 22°C; 5 uM hemin.

Assay [13] concerns CatG4-ext (DNA, G4) ACATAGCTGACTGGCTTGATTTTGGGTAGGGCGGGTTGGGAAATATCGAATTCTCAGCCTACACTGCAGTACTAGTACATATCA
The experiment in a line: competition with hemin: StAv gel shift of self-biotinylation. The following applies: 20 mM KCl, 40 mM HEPES pH 8.0, 22°C, 5 uM hemin.

Where [14] appears, read: 20 uM ligand lowers biotinylation 67% to 22-23%.

For `C=CC1=C(C)C2=Cc3c(C=C)c(C)c4[n]3[Fe]([Cl])[n]3c(c(C)c(CCC(=O)O)c3=CC3=NC(=C4)C(C)=C3CCC(=O)O)=CC1=N2`, the binding entry is “yes” in assay [1]; “yes” in assay [2]; “yes” in [3]; “yes” in assay [4]; “yes” in assay [5]; “weak” in assay [6]. Besides, the binding entry is listed as “yes” in assay [7]; “yes” in assay [8]; “yes” in assay [9]; “yes” in [10]; “yes” in assay [11]; “weak” in [12].

Consider `CN(C)c1ccc(Nc2c3ccc(NC(=O)CCN4CCCC4)cc3nc3cc(NC(=O)CCN4CCCC4)ccc23)cc1`, for which the binding entry in assay [13] (setting [14]) is “yes”.

For the molecule `NCCOc1cc(C(=O)Nc2cc(OCCN)c3ccccc3n2)nc(C(=O)Nc2cc(OCCN)c3ccccc3n2)c1`, the binding result in assay [13] (20 uM ligand lowers biotinylation 67% to 1%) is given as “yes”.

`CCc1c(C)c2cc3nc(cc4nc(cc5c(CC)c(C)c(cc1[nH]2)n5C)C(C)=C4CCC(=O)O)C(CCC(=O)O)=C3C`: the binding result in assay [13] (setting [14]) is recorded as “yes”.
